Patent publication US8580940B2, “Photoporphyrinogen oxidase having activity of imparting resistance against acifluorfen and gene thereof” (Nippon Soda Co., Ltd., priority 2005, dated 2013)

Assays:
[1] = test system: AT strain (transgenic Synechocystis strain expressing Arabidopsis-derived protoporphyrinogen oxidase); assay: microbe, parasite or virus in culture; assay type: cell-based, Synechocystis PCC6803; settings: for IC50: Synechocystis, 144 h, read-out: pI50 Value AT strain
Experimental: (§1) The AT strain obtained in Example 1 and ATΔslr1790 strain, in which slr1790 gene was disrupted by the method described in Example 4, were used. Aforedescribed BG11 liquid medium was employed. With a view to preventing reverse mutation or loss of the gene, either chloramphenicol or kanamycin was added to the medium at a final concentration of 25 μM for the AT strain and ATΔslr1790 strain, respectively, because a chloramphenicol resistance gene is introduced with protoporphyrinogen oxidase into AT strain and a kanamycin resistance gene is introduced into ATΔslr1790 strain when disrupting the gene. AT strain and ATΔslr1790 strain were precultured with shaking in BG11 liquid medium, collected during the growth phase, and suspended in fresh BG11 liquid medium supplemented with an antibiotic so that A730 became 0.1, which was used for investigation.
(§2) An active pharmaceutical ingredient of a test chemical was dissolved in DMSO and added to wells so that final concentration of agent became from 1.0×10^−4 M to 1.0×10^−9.5 M for each well (the final concentration of DMSO is 0.5%). The test includes shaking culture using a 96-well plate in a scale of 100 μl in each well at 30° C. of incubation temperature under 1000 lux of light intensity. Turbidity was measured 6 days after the start of the test and compared with solvent sample to calculate pI50 value. pI50 value=−log(concentration to inhibit 50% activity(M)) (Activity of Herbicidal Treatment)

[2] = test system: ATΔslr1790 strain (AT strain in which slr1790 gene was disrupted); assay: Test for inhibitory potency of protoporphyrinogen oxidase inhibitor, growth (turbidity) of ATΔslr1790 strain; assay type: cell-based, Synechocystis PCC6803; settings: turbidity 6 days after start, 30° C., 1000 lux, BG11 liquid medium, pI50 = -log(concentration to inhibit 50% activity (M)); for IC50: Synechocystis, 144 h
Experimental: as §1, §2

[3] = test system: Amaranthus lividus; assay: Herbicidal activity, foliage treatment; assay type: in vivo; settings: foliage spray, two weeks after the treatment, index 0-10
Experimental: Seeds of Amaranthus lividus were sowed on the surface of soil filled in a pot (200 cm^2) followed by covering with a little soil and then grown to 5 to 10 cm of plant length in a greenhouse. Each of water-diluted test chemical solutions was sprayed to foliage part of Amaranthus lividus with a small spray in an amount corresponding to the spray amount of 1000 litter/ha to achieve predetermined amount of agent. Cultivation was carried out in a greenhouse. Then herbicidal effect on Amaranthus lividus was examined two weeks after the treatment according to an examination criterion below.
Values 1, 3, 5, 7, and 9 indicate the intermediate value of […], 4 and 6, 6 and 8, and 8 and 10 respectively.

[4] = test system: Arabidopsis wild type; assay: Acifluorfen resistance test, degree of necrosis on leaves, wild type; assay type: in vivo; settings: acifluorfen 10 μM, 5 μl dropped onto leaves, 7 days after treatment, by eye on a 0 to 5 scale (5 complete death, 0 no effect)
Experimental: (§3) For transformants in which gene introduction was confirmed, acifluorfen resistance effect was tested. Acifluorfen was prepared as emulsion to contain 4% of effective component by mixing and solubilizing dimethylformamide and polyoxyethylene sorbitan surfactant. This was diluted with water to make the final concentration of acifluorfen 10 μM, 5 μl of which was dropped using a micropippet onto leaves of Arabidopsis wild type and transformed Arabidopsis slr lineage, in which gene introduction was confirmed, both grown to 1 to 2 cm in height in a growth chamber.
(§4) Study was continued until 7 days after the treatment with the chemicals and degree of necrosis was evaluated by eye (on a 0 to 5 scale, 0 means no effect).
(§5) Evaluation was done by eye on a 0 to 5 scale, with 5 meaning complete death and 0 meaning no effect.

[5] = test system: transformed Arabidopsis slr lineage (slr1790-introduced); assay: Acifluorfen resistance test, degree of necrosis on leaves, slr1790-introduced transformants; assay type: in vivo; settings: acifluorfen 10 μM, 5 μl dropped onto leaves, 7 days after treatment, by eye on a 0 to 5 scale (5 complete death, 0 no effect)
Experimental: as §3, §4, §5

Row | Structure (SMILES) | IC50 [1] [µM] | IC50 [2] [M] | Herbicidal activity (foliage treatment) (herbicide index for Amaranthus lividus, 16 g ai/ha) [3] | degree of necrosis, Arabidopsis Wild Type [4] | degree of necrosis, slr 52 ([5]; transformant slr 52) | degree of necrosis, slr 146 ([5]; transformant slr 146) | pI50 Value AT strain ([1]; turbidity 6 days after start, 30° C., 1000 lux, BG11 liquid medium, pI50 = -log(concentration to inhibit 50% activity (M))) | pI50 Value ATΔslr1790 strain [2]
1 | O=C(O)c1cc(Oc2ccc(C(F)(F)F)cc2Cl)ccc1[N+](=O)[O-] [acifluorfen] | > 100 | 3.16e-05 | 7 | 4 | 1 | 1 | – | –
2 | c1cc[n+]2c(c1)-c1cccc[n+]1CC2 [diquat] | 6.31 | 1e-05 | – | – | – | – | – | –
3 | C#CCN1C(=O)COc2cc(F)c(N3C(=O)C4=C(CCCC4)C3=O)cc21 [flumioxazine] | – | – | 10 (100%) | – | – | – | 4> | 6.7
4 | CCOC(=O)COc1cc(-c2nn(C)c(OC(F)F)c2Cl)c(F)cc1Cl [pyraflufenethyl, pyraflufen-ethyl] | > 100 | 2.51e-07 | 10 (100%) | – | – | – | – | –
